According to patent US20030220232A1, “Peptide and nucleic acid coding therefor for the detection, diagnosis and therapy of diseases of the nervous system” (priority 2000, published 2003):

Assays:
sodium ion channels = assay: Neuroinhibitory assay: inhibition of sodium currents, whole cell mode, differentiated NH15-CA2 neuroblastoma-x-glioma cells; format: cell-based; conditions: for concentration of solution with corresponding electrophysiological action on neuronal sodium channels: 10 μM peptide solution corresponds to 50 μM lidocaine solution
Excerpt: “Neuroinhibitory activity” here means the capacity of a substance for blocking sodium ion channels. Neuroinhibitory activity can be measured in this connection by the inhibition of sodium ion currents through potential-dependent sodium ion channels. (Review article by Lehmann-Horn et al. in Rev. Physiol. Biochem. Pharmacol. 128; (1996), 198-268). The experimental conditions for measurement of the neuroinhibitory activity are described, for example, in Brinkmeier et al., Muscle and Nerve 19 (1996), 54-62. Neuroinhibitory activity can be determined using differentiated NH15-CA2 [neuroblastoma×glioma] cells (Hamprecht et al., Meth. Enzymol. 109 (1985), 316-41; Brinkmeier et al., Muscle Nerve 19 (1996), 54-62).
The neuroinhibitory activity was determined by the inhibition of sodium ion channels using differentiated NH15-CA2 neuroblastoma-x-glioma cells. The culture conditions and morphological and physiological parameters of the differentiation of these cells are known (Hamprecht et al., Meth. Enzymol. 109 (1985), 316-41). For the assay, the cells were transferred into a hydrophobic test dish which was filled with standard external liquid (140 mM NaCl; 3.5 mM KCl; 1.0 mM CaCl2; 1.0 mM MgCl2; 2 mM HEPES, pH 7.4). The dish was on the platen of an inverted microscope for observation of the cells, while these were treated with pipettes which were filled with internal solution (140 mM CsCl; 1.4 mM MgCl2; 10 mM EGTA and 10 mM HEPES (peak resistances: […])). The sodium currents were induced and recorded in the whole cell mode. The determination of the maximum current amplitudes as a response to repetitive rectangular pulses from −85 to −20 mV lasting 8 ms before, during and after administration of the test solution can be used as a rapid test for the neuroinhibitory activity. The decrease in the current was recorded in three to five cells and the means were determined. An extended test consisted of determination of the “steady-state” activation and inactivation parameters of sodium ion channels. To determine the dependence of the activation on potential, a cyclic pulse program was used, which comprised pre-pulses which depolarized the cells from an HP (holding potential) of −85 mV to −135 mV over 100 ms, and subsequent variable test pulses which depolarized for 8 ms in 4 mV steps from −65 to +31 mV. For the dependence of the inactivation on potential, a similar program was used, which comprised a fixed 100 ms conditioning pulse at −135 mV, a variable 32 ms prepulse in the course of −135 to −19 mV in 4 mV steps and a constant test pulse which depolarized the cells to −20 mV. The size of the left shift of the h curve in the presence of test solutions was used as a measured of the inhibition of the sodium ion channels.
The neuroinhibitory activity of the synthetic peptide with the sequence (SEQ ID NO:1) was determined by the inhibition of the sodium currents by ion channels which were induced by 1 Hz rectangular pulses from […]. […] In each case the mean with the standard deviation is shown.

[1] = biological target: sodium ion channels of differentiated NH15-CA2 neuroblastoma-x-glioma cells; assay: cell-based or functional assay

CCN(CC)CC(=O)Nc1c(C)cccc1C [lidocaine, reference compound]
concentration of solution with corresponding electrophysiological action on neuronal sodium channels (sodium ion channels): 50 μM

Gln-Tyr-Asn-Ala-Asp (QYNAD) [SEQ ID NO:1]
concentration at saturation of the neuroinhibitory effect (sodium ion channels): 100 µM | neuroinhibitory activity compared with lidocaine (sodium ion channels): significantly higher | neuroinhibitory activity in respect of sodium ion channels (in words) (sodium ion channels): blocks their sodium currents | concentration of solution with corresponding electrophysiological action on neuronal sodium channels (sodium ion channels): 10 μM | peptide-mediated blocking of the ion channel (time course) (sodium ion channels; NH15-CA2 cells): rapid and reversible | IC50 (sodium ion channels; NH15-CA2 cells, currents induced by 1 Hz rectangular pulses, seven measurements, read-out: peptide concentration giving half-maximum inhibition of the sodium ion currents): < 10 µM

Gln-Tyr-Asn-Asp-Ala (QYNDA) [SEQ ID NO:2]
neuroinhibitory activity in respect of sodium ion channels (in words) (sodium ion channels): does not have a neuroinhibitory activity

synthetic peptide Gln-Tyr-Asn-Ala-Asp (SEQ ID NO: 1)
half-maximum inhibition of the sodium ion currents [1]: < 10 µM | saturation of the peptide effect [1]: 100 µM
